The values that follow come from patent US4442093A, “Method for administering 24,25-dihydroxycholecalciferol to persons suffering from hypercalcemia” (Kureha Kagaku Kogyo Kabushiki Kaisha, priority 1981, dated 1984).

For assay [1], the system named is calcium level in serum. The assay is described as follows: Serum calcium in rats made hypercalcemic with Vitamin D3 (Example 1). It counts as in vivo, male Wistar rats. To be noted: for Calcium level in serum: 24R 100 µg/kg oral, calcitonin 4 MRCU/kg s.c. How it is done: To 16 subgroups of male Wistar rats of body weight of 150±40 g (one subgroup consisting of 5 rats), a solution of Vitamin D3 dissolved in corn oil at 600 micrograms/ml was orally administered once a day for continuous 4 days at a daily dose rate of 0.5 ml/100 g body weight to prepare the rats artifically suffering from hypercalcemia. After one day's fasting from the final administration of Vitamin D3, the calcium level in the serum of each rat of the first subgroup was on the average 13.5±0.4 mg/dl. The remaining 15 subgroups of the rats were divided into 3 groups each consisting of 5 subgroups and subjected to the following tests.
To the rats of the second group, a solution of porcine calcitonin in a physiological saline solution containing 4% by weight of gelatin was subcutaneously injected at a dose rate of 4 MRCU/kg body weight instead of the solution of 24R,25-(OH)2 -D3 and they were treated as those of the first group.
To the rats of the third group, only the same triglyceride ester as in the first group was orally administered, and they are treated in the same manner as in the first group.
The calcium level of the respective sera of the thus collected blood was determined by OCPC method (Orthocresol Phthalein Complexone method) and shown in Table 1.

Assay [2] relates to content of magnesium in serum and bone. Description: Serum and bone magnesium in rats on Vitamin D-deficient diet (Example 16). The assay is classed as in vivo, male Wistar rats. To be noted: diet TD-81143. How it is done: Forty male Wistar rats in 9th week after birth were divided equally into four groups, and the rats of each group were treated as follows:
The rats of the first group were raised with a normal diet (TD-81144) with daily oral administration of 0.2 ml of MCT (refer to Example 15)/100 g body weight for 5 weeks.
The rats of the second group were raised with a Vitamin D-deficient diet (TD-81143, made by TEKLAD Co., U.S.A., which causes abnormal metabolism of magnesium) with daily oral administration of 0.2 ml of MCT/100 g body weight for 5 weeks.
The rats of the third group were raised with the Vitamin D-deficient diet as in those of the […] with daily oral administration of 1 microgram of 24R,25-(OH)2 -D3 dissolved in 0.2 ml of MCT/100 g body weight for 5 weeks.
The rats of the fourth group were raised with the Vitamin D-deficient diet as in those of the […] with daily oral administration of 10 micrograms of 24R,25-(OH)2 -D3 dissolved in 0.2 ml of MCT/100 g body weight for 5 weeks.
After the final administration was over, all the rats were sacrificed to collect their bones and blood respectively.
Serum specimen was prepared by the ordinary method from the blood specimen, and the bones were washed to remove marrow, lyopholized at -20° C. for 3 days and pulverized in a mortar. After de-ashing 50 mg of the thus pulverized bone with 1 ml of 2 N aqueous hydrochloric solution at room temperature, the insoluble matter was removed by filtration, and the filtrate was subjected to atomic absorption method to find out the content of magnesium in the bone specimen. Magnesium content of the serum specimen was determined by atomic absorption method.

In assay [3] the test system is blood sugar. Description: Blood sugar in streptozotocin rats (Example 22). The assay is classed as in vivo, male Wistar rats. To be noted: 10 µg/kg/day p.o., 4 weeks, streptozotocin i.p. How it is done: Among the male Wistar rats in 6th week after birth to which 60 mg of streptozotocin/kg body weight was intraperitoneally administered, those in which positive urine sugar was confirmed after one week of the administration, reduction of both urine sugar and blood sugar was shown by the administration of regular insulin and a state of hyper urine sugar and hyper blood sugar was confirmed after a few days of the administration of regular insulin. The confirmed rats were used as the model animals of glycosuria in the following tests. As control, the male Wistar rats intraperitoneally administered with aqueous physiological saline solution instead of streptozotocin were used. These rats were fed with an ordinary solid diet (CE-2, prepared by Nippon Crea Co., Ltd.)
The model animals were divided into two groups each consisting of 12 animals, and to the rats of the first group (according to the present invention), 24R,25-(OH)2 -D3 was forcibly administered p.o. in a state of solution in MCT (triglyceride of C8 and C10 -fatty acid) containing 0.2% by weight of ethanol once a day, 5 to 6 times a week for continuous 4 weeks at a daily dose rate of 10 micrograms/kg body weight. To the rats of the second group, only the same amount of MCT containing 0.2% by weight of ethanol as above was forcibly p.o. administered in the same manner as in the first group. […]

The subject of assay [4] is calcium level in serum. The assay is described as follows: Serum calcium in hemodialysis patient hypercalcemic due to active Vitamin D3 (Example 7). The assay is classed as in vivo, human. The settings on record: person six; baseline. The protocol: person six who was subjected to hemodialysis on account of renal failure and became hypercalcemia due to the four month administration of active Vitamin D3 at a daily dose of 0.5 to 1.0 microgram was treated by the oral administration of the capsule composition similar to that prepared in Example 6 for three continuous days at a daily dose of 10 micrograms of 24R,25-(OH)2 -D3.

The test system of assay [5] is calcium level in serum. Description: Serum calcium in rats made hypercalcemic with parathyroid hormone (Example 3). The assay is classed as in vivo, male Wistar rats. The settings on record: 50 µg/kg i.p., PTH-treated. The protocol: To 4 subgroups of male Wistar rats of 150±40 g of body weight (a subgroup consisting of 5 animals), parathyroid hormone (PTH, Sigma Bovine parathyroid TCA powder, 134 USPU/mg) dissolved in a physiological saline solution containing 4% by weight of gelatine was subcutaneously injected at a dose rate of 150 USPU/100 g body weight, the volume injected being 0.4 ml/100 g body weight to prepare the rats artificially suffering from hypercalcemia.
The rats of the second group, after one hour of the administration of the parathroid hormone, were intraperitoneally administered only with ethanol, and treated as in the first group for taking the blood specimen.

On to `C=C1CC[C@H](O)C/C1=C/C=C1\CCC[C@]2(C)[C@@H]([C@H](C)CC[C@@H](O)C(C)(C)O)CC[C@@H]12` [24R,25-(OH)2 -D3], for which the “period for which the reduced calcium level was maintained” value in assay [1] (100 µg/kg oral) is 12 h. In addition, the “Calcium level in serum” value in assay [1] (2 h after administration) was 12.5 ± 0.4 mg/dL; in assay [1] (5 h after administration) it was 11.0 ± 0.5 mg/dL; in assay [1] (8 h after administration) it was 10.5 ± 0.5 mg/dL; in assay [1] (12 h after administration), 10.5 ± 0.4 mg/dL; in assay [1] (24 h after administration), 10.8 ± 0.3 mg/dL; in assay [5] (after 2 hours), 12.5 ± 0.5 mg/dL. In addition, the “Calcium level in serum” value in assay [5] (after 5 hours) is 10.5 ± 0.5 mg/dL. The “Content of magnesium in bone” value is 0.395 ± 0.021% in assay [2] (1 µg/100 g/day oral 5 weeks) and 0.396 ± 0.016% in assay [2] (10 µg/100 g/day oral 5 weeks). Further, the figures for the “Content of magnesium in serum” value in assay [2] (1 µg/100 g/day oral 5 weeks) and in assay [2] (10 µg/100 g/day oral 5 weeks) were 4.0 ± 0.3 mg/dL and 3.6 ± 0.3 mg/dL, respectively. For the same molecule, in assay [3], the Blood sugar is 208 ± 42 mg/dL. Besides, the “calcium level in serum before the administration” value in assay [4] was 12.8 mg/dL.
